Test results published in patent publication US20230123889A1, “METHOD FOR DEGRADING BENZO(A)PYRENE WITH A HALOPHILIC BACTERIUM STRAIN OF STAPHYLOCOCCUS HAEMOLITICUS” (KING FAHD UNIVERSITY OF PETROLEUM AND MINERALS, priority 2021, published 2023).
Marks after values point to notes of the source that are not given here.

How the values were obtained:
Assay type in all cases: cell-based
[1] = system: Staphylococcus haemoliticus 10SBZ1A strain; experiment: Quantification of BZP and substrate utilization in bacterial culture (GC-MS); conditions: control without bacteria
Protocol: Quantification of BZP and substrate utilization. The remaining BZP was quantified in a bacterial culture of 100 ml containing 20 μmol BZP for 18 days, according to the protocol reported by and incorporated by reference to Budiyanto, F, et al. (2017). Characterization of halophilic bacteria capable of efficiently biodegrading the high molecular weight polycyclic aromatic hydrocarbon pyrene. Environmental Engineering Science. June 2018.616-626.
A sample corresponding to one culture flask of 100 ml, was collected every 5 days and subjected to extraction as follows. The samples were sonicated for 30 min and then extracted twice with ethyl acetate (50 ml). The combined organic layers were dehydrated with calcium chloride and then dried under vacuum. Samples were re-dissolved in 500 μl of chloroform prior to analysis by gas chromatography-mass spectrometry (GC-MS). […] Values of quantified BZP were fitted in the exponential decay equation, Qt=Qoe^−kt to obtain the biodegradation rate constant (k); see Lu, J, C Guo, et al. (2014). […]
The mixture was then diluted with 1.0 ml of chloroform prior to its analysis by GC-MS. […] Values of quantified BZP were fitted in the exponential decay equation, Qt=Qoe^−kt to obtain the biodegradation rate constant (k); see Lu et al., International Biodeterioration & Biodegradation 87: 75-80.

[2] = system: Staphylococcus haemoliticus 10SBZ1A strain; experiment: Bacterial growth assessment (doubling time, CFU/ml) in the presence of BZP and various hydrocarbon substrates as carbon source; conditions: for Doubling time (dt, h): strain growing on BaP; for strain dt in the presence of substrate (FIG. 3): substrate as carbon source
Protocol: Bacterial growth assessment in the presence of BZP and various hydrocarbon molecules: effect of pH and salinity. To initiate these experiments, bacteria were pre-cultured in an LB rich medium, and around 5×10^5 colony forming units (CFU) of these bacteria were added to 50 ml BH medium containing 100 μmol BZP, unless otherwise stated. Non-polar substrates pyrene, phenanthrene, naphthalene and anthracene were dissolved in dimethyl sulfoxide (DMSO) [0.1 g/ml], while the water-soluble substrates SALC and CATC were dissolved directly in BH medium. The aliphatic compounds were directly added to the medium. […] Growth was monitored as a measure of CFU/ml.
Bacterial doubling time (dt) was calculated by fitting growth curves data points into […] equation, where Q is the bacterial CFU ml^−1 at time t, Qo is the initial bacterial count in the culture, and k is the growth rate. The growth rate (k) was then used to compute dt values according to the equation: dt=ln(2)/k (in days). Values were calculated with Microsoft Excel software (Version). All experiments were carried out in duplicate.

[3] = system: Staphylococcus haemoliticus 10SBZ1A strain; experiment: as above

## c1ccc2c(c1)cc1ccc3cccc4ccc2c1c34 [BZP, benzo(a)pyrene]
[1]
  abiotic degradation: Around 20%
[2]; 0% NaCl
  growth: No growth
[2]; 4-200 μmol of BZP as sole source of carbon
  doubling time: 2 to 10 h
[2]; 20% NaCl
  growth: No growth
[2]; BZP 20 μmol.1^−1
  maximum count: > 10^9 CFU ml^−1
[2]; BZP 400 μmol.1^−1
  time at which the maximum growth was achieved: 15 days
[2]; BZP 1 to 100 μmol.1^1
  dt values: 15 to 20 h
[2]; BZP 5 to 20 μmol.1^−1
  maximum count: 10^7-10^8 CFU/ml
  time to reach maximum growth: 6 to 8 days
[2]; BZP 200 and 400 μmol.1^−1
  dt values relative to those at 1 to 100 μmol.1^1: almost doubled
[2]; Salinity 5% NaCl
  Doubling time (dt, h): 44 ± 7 h
[2]; Salinity 5% NaCl, listed as benzo(a)pyrene
  Doubling time (dt, h): 46.8 ± 7.4 h
[2]; Salinity 10% NaCl
  Doubling time (dt, h): 21 ± 1 h
[2]; Salinity 10% NaCl, listed as benzo(a)pyrene
  Doubling time (dt, h): 21.5 ± 1.0 h
[2]; Salinity 15% NaCl
  Doubling time (dt, h): 156 ± 73 h
[2]; Salinity 15% NaCl, listed as benzo(a)pyrene
  Doubling time (dt, h): 156 ± 74 h
[2]; Temperature 35° C.
  Doubling time (dt, h): 28.5 ± 2.4^b h
[2]; Temperature 37° C.
  Doubling time (dt, h): 21.5 ± 1.0^b h
[2]; Temperature 40° C.
  Doubling time (dt, h): 24.5 ± 1.0 h
[2]; pH 5, 6, 8 and 9
  growth at other pH values: slow
[2]; pH 7
  dt values: 21.49±0.98
  Doubling time (dt, h): 21.5 ± 1.0 h
[2]
  strain dt in the presence of substrate (FIG. 3): around 42 h
[3]; Temperature 37° C., strain growing on BaP
  Doubling time (dt, h): 21+1 h
[3]; temperatures 35, 37, 40° C.
  range of dt: 21 to 29 h

## c1cc2ccc3cccc4ccc(c1)c2c34 [pyrene]
[2]
  strain dt in the presence of substrate (FIG. 3): similar

## OCC(O)CO [glycerol]
[2]
  strain dt in the presence of substrate (FIG. 3): around 11 hours

## c1ccc2cc3ccccc3cc2c1 [anthracene]
[2]
  strain dt in the presence of substrate (FIG. 3): 30 to 33 h
